Consider one compound from patent US20200113902A1, “COMPOSITIONS AND METHODS FOR TREATING CANCERS WITH COVALENT INHIBITORS OF CYCLIN-DEPENDENT KINASE 7 (CDK7)” (Syros Pharmaceuticals, Inc., priority 2017, published 2020).

Assay [1] concerns MCL1 protein in HCC70 cells. Put plainly: Western blot of BCL2 family proteins, HCC70. The assay is classed as cell-based, human. The following applies: 50 nM or 100 nM, 24 hours. Here is the method: Cytotoxic cancer cell lines HCC70 and TOV21G, and cytostatic cancer cell lines T47D and COV318 were seeded in wells of a six-well dish at a density of 1×10^6 cells/well and allowed to adhere overnight. Cells were then treated with 50 nM of Compound 1 for 16 or 24 hours, or with DMSO (0 hours) representing a negative control. Cells were harvested and placed on ice, and resuspended in RIPA lysis buffer supplemented with protease and phosphatase inhibitors. Clarified lysates prepared with 4×LSD running buffer and boiled at 95° C. for 5 minutes. Equivalent amounts of sample (10 μg total protein) were run on a 4-12% Bis-Tris gel and transferred to a PDVF membrane for Western blotting using standard Western blotting protocols. Membranes were blocked with Licor TBS blocking buffer then probed with antibodies for BCL-XL, BCL-2, MCL1, BID, and GAPDH visualized using and Odyssey imager (FIGS. 23A and 23D).
In a similar experiment, TNBC breast cancer cell lines HCC70, MDAMB468, MDAMB453 and CAL-120 were grown as described above and treated with DMSO, 50 nM Compound 1 or 100 nM Compound 1 for 24 hours. Protein samples were prepared as described above for Western blotting using antibodies specific for the indicated proteins in FIG. 29A. […]
On the technique in general: Immunoblotting shows a protein as a band on a membrane.

The test system of a further assay is BR5013 xenografts. Put plainly: TNBC patient-derived xenograft BR5013, tumor volume. The assay is classed as in vivo, mouse. To be noted: 40 mg/kg or 30 mg/kg i.v. BIW. How it is done: Patient-derived xenograft (PDX) models from TNBC patients (BR5010, BR5013, BR5015, and BR5023) were established in NOD-SCID mice at Crown Bioscience (San Diego, USA). Cryo vials containing tumor cells were thawed and prepared for injection into mice. Cells were washed in PBS, counted, and resuspended in cold PBS at a concentration of 50,000-100,000 viable cells/100 ul. Cell suspensions were mixed with an equal volume of Cultrex ECM and kept on ice during transport to the vivarium. Cells were prepared for injections by withdrawing ECM-Cell mixture into a chilled slip-tip syringe fitted with a 26G 7/8 (0.5 mm×22 mm) needle. The filled syringes were kept on ice to avoid the solidification of ECM. Each mouse was inoculated subcutaneously in the right flank with 200 uL of the cell suspension. Tumor sizes were measured in two dimensions using a caliper, and the volumes were expressed in mm^3 using the formula: V=0.5 a×b^2, where a and b are the longest and shortest diameters of the tumor, respectively. Compound 1 treatment was started when the average tumor size reached 150-200 mm^3.
Compound 1 was formulated in w/v 20% Captisol (pH 4-6) and administered by i.v. twice weekly (BIW) at a final dose of 40 mg/kg or 30 mg/kg in a 10 ml/kg volume. Tumor volumes were measured twice weekly over the course of the study. […]
(In general: Xenograft models place foreign cells or tissue in a host animal.)

For assay [2], the system named is homologous recombination deficiency / carboplatin sensitivity genes in A2780 cells. Put plainly: Nanostring PanCancer Pathways mRNA, A2780. The assay is classed as cell-based. To be noted: 50 nM, 16 hours. Here is the method: Ovarian Cell lines OvCar3, TOV21G, A2780 and COV318 were plated at 500,000 cells/well in a 6-well plate the day before treatment. The next day the cells were treated with vehicle or 50 nM Compound 1 for 0, 6, or 16 hours after which cells were harvested and total RNA collected using RNeasy mini kit (Qiagen). Changes in mRNA between samples were analyzed with Nanostring™ PanCancer Pathways Panels specifically analyzing genes related to homologous recombination deficiency and carboplatin sensitivity (ie. BRCA1, BRCA2, Rad51, ATM, ATR, MSH2, MSH6). Nanostring signal intensities were first normalized to housekeeping genes across all cell lines, and then normalized to the 0 hour timepoint within a cell line.

On to `CN(C)C/C=C/C(=O)Nc1ccc(C(=O)N[C@@]2(C)CCC[C@@H](Nc3ncc(Cl)c(-c4c[nH]c5ccccc45)n3)C2)nc1` [Compound 1, N-((1S,3R)-3-(5-chloro-4-(1H-indol-3-yl)pyrimidin-2-ylamino)-1-methylcyclohexyl)-5-((E)-4-(dimethylamino)but-2-enamido)picolinamide], for which the “MCL1 protein level (Western blot)” value in assay [1] was “downregulated”. In the assay on BR5013 xenografts, the “Tumor growth vs untreated historical samples” value is on record as “little inhibitory effect on tumor growth”. Besides, the “mRNA of genes related to homologous recombination deficiency and carboplatin sensitivity, all genes except Rad51 (BRCA1, BRCA2, ATM, ATR, MSH2, MSH6)” value in assay [2] is on record as “downregulated”.
